Tests used:
AhR = target: T1, AhR (Homo sapiens, UniProt P35869); assay: AhR-dependent genes in vitro in cell lines (data not shown); format: cell-based; parameters: host or cells: unnamed cell lines; details: preliminary
T1 sequence (P35869 11-848): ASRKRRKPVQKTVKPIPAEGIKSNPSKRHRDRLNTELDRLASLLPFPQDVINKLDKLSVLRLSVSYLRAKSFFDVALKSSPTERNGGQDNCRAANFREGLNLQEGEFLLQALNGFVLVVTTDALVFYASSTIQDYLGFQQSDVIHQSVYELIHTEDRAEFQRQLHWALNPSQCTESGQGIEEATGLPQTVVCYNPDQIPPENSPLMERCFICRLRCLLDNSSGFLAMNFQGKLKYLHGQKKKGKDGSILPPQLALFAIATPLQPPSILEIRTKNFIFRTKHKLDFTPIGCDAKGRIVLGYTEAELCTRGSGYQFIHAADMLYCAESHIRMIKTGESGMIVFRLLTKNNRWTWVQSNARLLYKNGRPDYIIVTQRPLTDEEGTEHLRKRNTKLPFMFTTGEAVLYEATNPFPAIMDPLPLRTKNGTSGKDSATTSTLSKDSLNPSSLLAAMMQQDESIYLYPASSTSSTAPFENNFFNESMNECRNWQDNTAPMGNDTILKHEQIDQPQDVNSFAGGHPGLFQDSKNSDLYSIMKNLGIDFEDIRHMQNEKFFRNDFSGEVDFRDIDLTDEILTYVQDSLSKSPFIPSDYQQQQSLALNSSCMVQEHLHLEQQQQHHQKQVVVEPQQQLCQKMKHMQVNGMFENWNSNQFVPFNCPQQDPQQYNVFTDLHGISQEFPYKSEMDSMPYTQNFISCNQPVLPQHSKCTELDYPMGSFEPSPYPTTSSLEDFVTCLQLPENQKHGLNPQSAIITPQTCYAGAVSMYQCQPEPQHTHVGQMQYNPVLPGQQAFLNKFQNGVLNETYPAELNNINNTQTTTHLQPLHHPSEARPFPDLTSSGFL
Procedure: Specifically, the oxidated form of 3-IAld (indole-3-formic acid), and methylated forms of indole-3-formic acid, were detected following administration of labelled 3-IAld. For example, 1-Methylindole-3-carboxylic acid was detected with the same kinetics of indole-3-formic acid, with peak levels at 30 min (FIGS. 13C and 13D). Few studies have been performed assessing the biological activities of methylindoles and methoxyindoles as aryl hydrocarbon receptor (AhR) activators.

[1] = test system: pathology after acute treatment with anti-CTLA-4 monoclonal antibody; assay: acute anti-CTLA-4 treatment in 8-10 week-old Il10−/− mice, without DSS; format: in vivo
Procedure: Il10^−/− mice were treated with anti-CTLA-4 monoclonal antibody and 3-IAld alone, as above (FIG. 6), without DSS. Animals were monitored daily for body weight and inflammatory pathology in the colon and sacrificed at 14 days after the first anti-CTLA-4 monoclonal antibody administration.

[2] = toxicology, 3 weeks, H&E tissue pathology in naive C57BL/6 and AhR−/− mice; format: in vivo; details: Eudragit-formulated, intragastrically every other day for 3 weeks, two concentrations
Source text: Eudragit-formulated 3-IAld (Puccetti et al, 2018) was given intragastrically every other day, at the doses indicated for 3 weeks to naive C57BL/6 and AhR−/− mice. At the end of treatment, mice were sacrificed, and tissue pathology blindly examined on different organs after Hematoxylin and Eosin (H&E) staining.

immune-mediated colitis = immune-mediated colitis in Rag1−/− mice infused with CD4+ T cells and treated with anti-CTLA-4 mAb; format: in vivo
Procedure: Immunodeficient Rag1^−/− mice reconstituted with naïve CD4^+ T cells and treated with anti-CTLA-4 monoclonal antibody. Rag1−/− mice, mice homozygous for the RagltmlMom mutation produce no mature T cells or B cells. Their phenotype can be described as a “non-leaky” immune deficiency. Rag1−/− 8-10 weeks old mice were injected intraperitoneally with 4×10^5 naïve CD4^+ T cells purified from spleens of C57BL/6 mice and treated with anti-CTLA-4 mAb or control IgG the day after T-cell reconstitution and then at days 0, 4, 8, 12, and 16. […] Mice were monitored daily for overall mortality and body weight loss and sacrificed on day 21.

LLC cells = assay: Lewis lung carcinoma (LLC) model with anti-PD-1 antibody; format: in vivo, C57BL/6 mice
Procedure: For FIGS. 12A-12E, C57BL/6 mice were subcutaneously injected with B16 tumor cells and administered 100 μg anti-CTLA-4 mAb or isotype control intraperitoneally four times at 3-day intervals up to 16 days. 3-IAld was administered intragastrically every other day. Mice were evaluated for (FIG. 12A) tumor growth, (FIG. 12B) histology (periodic acid-Schiff staining), (FIG. 12C) immunohistochemistry for CD8+ and CD4+ tumor-infiltrating lymphocytes (TIL), (FIG. 12D) number of positive TIL per high-power field, HPF and (FIG. 12E) Cxcl9 and Perforin expression. (FIGS. 12F-12J) C57BL/6 mice were orthotopically injected with LLC cells and administered 200 μg anti-PD-1 mAb or isotype control intraperitoneally five times at 3-day intervals up to 18 days. 3-IAld was administered intragastrically every other day. Mice were evaluated for (FIG. 12F) % survival, (FIG. 12G) lung weight, (FIG. 12H) lung gross pathology, (FIGS. 12I, 12J) CD4+CD25+Foxp3+ cells. Photographs were taken with a high-resolution microscope, ×40 magnification (scale bars, 100 μm). Each in vivo experiment includes three mice per group (nine mice in each experiment). Data are represented as mean±SEM. One-way analysis of variance, Bonferroni post hoc test. *P<0.05, **P<0.01, ***P<0.001.
The potential application of 3-IAld requires that its immunoregulatory activity would not impinge the tumor immunosurveillance. To this purpose, the effect of 3-IAld was assessed in the anti-CTLA-4-responsive B16 melanoma model (Renga et al, 2022).

[3] = enteric microparticles; cited from earlier work
[4] = test system: DSS+anti-CTLA-4-induced colitis; assay: DSS+anti-CTLA-4-induced colitis in 8-10 wk-old Il10−/− mice; format: in vivo
Procedure: Il10^−/− Mice received DSS (1%) in their drinking water and 100 μg anti-CTLA-4 monoclonal antibody intraperitoneally at days 0, 4 and 8 following the DSS administration. 3-IAld-Eudragit was given (18 mg/kg 3-IAld) intragastrically every other day throughout the experiment, starting 2 days before treatment. Animals were monitored daily for body weight and inflammatory pathology in the colon until 14 days after DSS administration.

[5] = 3-IAld-Eudragit 18 mg/kg, DSS 1%

SMILES	activation of AhR-dependent genes (AhR)	pathology after acute anti-CTLA-4 treatment (overall) ([1]; 3-IAld)	body weight loss ([1]; 3-IAld as in the DSS model, 14 days)	inflammatory pathology (colon) ([1]; 3-IAld, 14 days)	massive cellular infiltrate (submucosa) ([1]; 3-IAld, 14 days)	tissue pathology in different organs (H&E) [2]	progression of immune-mediated colitis (overall) (immune-mediated colitis; 3-IAld 18 mg/kg)	weight loss (immune-mediated colitis; 3-IAld 18 mg/kg intragastrically every other day, 21 days)	colon histopathology (immune-mediated colitis; 3-IAld 18 mg/kg, day 21)	gross pathology (immune-mediated colitis; 3-IAld 18 mg/kg, day 21)	therapeutic efficacy of anti-PD-1 antibody (LLC cells; 3-IAld with 200 μg anti-PD-1 mAb)	ability of anti-PD-1 antibody to increase survival (LLC cells; 3-IAld with anti-PD-1 mAb)	ability of anti-PD-1 antibody to reduce the recruitment of Foxp3+CD25+ Treg cells in the lung (LLC cells; 3-IAld with anti-PD-1 mAb)	ability of anti-PD-1 antibody to improve gross pathology (LLC cells; 3-IAld with anti-PD-1 mAb, lung)	ability of anti-PD-1 antibody to decrease tumour growth (LLC cells; 3-IAld with anti-PD-1 mAb, lung weight)	inflammatory histopathology and barrier function [3]	DSS+anti-CTLA-4-induced colitis (overall) ([4]; 3-IAld)	loss of body weight ([4]; 3-IAld-Eudragit 18 mg/kg intragastrically every other day, DSS 1%)	disease activity index [4, 5]	inflammatory pathology (colon) [4, 5]
Cn1cc(C(=O)O)c2ccccc21 [1-methylindole-3-carboxylic acid, 1-Methyl-1H-indole-3-carboxylic acid]	activated AhR-dependent genes in a dose-dependent manner	–	–	–	–	–	–	–	–	–	–	–	–	–	–	–	–	–	–	–
O=Cc1c[nH]c2ccccc12 [3-IAld, 1H-indole-3-carbaldehyde]	–	protects	prevented	ameliorated	reducing	absence of visible tissue pathology	limits progression	reduced	improved	improved	did not interfere	did not prevent	did not prevent	did not prevent	did not prevent	improved	protects	prevented	decreased	decreased

— US20250090498A1, “TREATMENT OF PRIMARY CTLA-4 CHECKPOINT RELATED IMMUNODEFICIENCIES” (ADIENNE PHARMA & BIOTECH SA, priority 2023, published 2025)
